Assay results taken from ChEMBL document CHEMBL1201862, “PubChem BioAssay data set” (2004).
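Briefly, cells in 96-well plates were exposed to five compound concentrations for 48 h, and endpoints were estimated by linear interpolation. GI50 is the concentration that inhibits growth by half.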 The source made the active and inactive calls. Cut-off read from the data, not from the text of the source: active = GI50 up to about 1.1 µM and inactive = higher.

Assays:
Assay in all cases: DTP human tumour cell line panel, 48 h
SNB-19 = tested on: SNB-19
HCT-15 = tested on: HCT-15
HOP-92 = tested on: HOP-92
SK-MEL-28 = tested on: SK-MEL-28
786-0 = tested on: 786-0
TK-10 = tested on: TK-10
NCI/ADR-RES = tested on: NCI/ADR-RES
HOP-62 = tested on: HOP-62
OVCAR-5 = tested on: OVCAR-5
SF-295 = tested on: SF-295
HCT-116 = tested on: HCT-116
U-251 = tested on: U-251
SN12C = tested on: SN12C
CCRF-CEM = tested on: CCRF-CEM
SF-268 = tested on: SF-268
COLO 205 = tested on: COLO 205
SNB-75 = tested on: SNB-75
RPMI-8226 = tested on: RPMI-8226
SK-OV-3 = tested on: SK-OV-3
MCF7 = tested on: MCF7

Structure (SMILES) | GI50 (SNB-19) | GI50 (HCT-15) | GI50 (HOP-92) | GI50 (SK-MEL-28) | GI50 (786-0) | GI50 (TK-10) | GI50 (NCI/ADR-RES) | GI50 (HOP-62) | GI50 (OVCAR-5) | GI50 (SF-295) | GI50 (HCT-116) | GI50 (U-251) | GI50 (SN12C) | GI50 (CCRF-CEM) | GI50 (SF-268) | GI50 (COLO 205) | GI50 (SNB-75) | GI50 (RPMI-8226) | GI50 (SK-OV-3) | GI50 (MCF7)
NC(=O)/N=C(\N)NC(=O)c1ccccc1 | > 100 µM (inactive) | > 100 µM | > 100 µM (inactive) | > 100 µM (inactive) | > 100 µM (inactive) | > 100 µM (inactive) | > 100 µM (inactive) | > 100 µM (inactive) | > 100 µM (inactive) | > 100 µM (inactive) | > 100 µM (inactive) | > 100 µM (inactive) | > 100 µM (inactive) | – | – | – | – | – | – | –
CC1=NOC(=O)/C1=C/c1cccc2ccccc12 | > 100 µM (inactive) | > 100 µM | > 100 µM (inactive) | > 100 µM (inactive) | > 100 µM (inactive) | > 100 µM (inactive) | – | > 100 µM (inactive) | > 100 µM (inactive) | > 100 µM (inactive) | > 100 µM (inactive) | > 100 µM (inactive) | > 100 µM (inactive) | > 100 µM (inactive) | > 100 µM (inactive) | > 100 µM (inactive) | > 100 µM (inactive) | > 100 µM (inactive) | > 100 µM (inactive) | –
Cc1ccccc1NC(=O)C(=O)CC(=O)C1CCOC1=O (stereo not given) | > 100 µM (inactive) | > 100 µM | > 100 µM (inactive) | > 100 µM (inactive) | > 100 µM (inactive) | > 100 µM (inactive) | – | > 100 µM (inactive) | > 100 µM (inactive) | > 100 µM (inactive) | > 100 µM (inactive) | > 100 µM (inactive) | > 100 µM (inactive) | > 100 µM (inactive) | > 100 µM (inactive) | > 100 µM (inactive) | > 100 µM (inactive) | > 100 µM (inactive) | > 100 µM (inactive) | –
Cn1cnc([N+](=O)[O-])c1Sc1n[nH]c(-c2ccc(Cl)cc2)n1 | 20.7 µM (inactive) | – | 14.5 µM (inactive) | 15.3 µM (inactive) | 20.3 µM (inactive) | 17.7 µM (inactive) | – | 21.5 µM (inactive) | 23.4 µM (inactive) | 23.4 µM (inactive) | 19.6 µM (inactive) | 19.5 µM (inactive) | 15.5 µM (inactive) | 11.8 µM (inactive) | 22 µM (inactive) | 17.1 µM (inactive) | 18.6 µM (inactive) | 22.1 µM (inactive) | 30.9 µM (inactive) | –
CCOC(=O)C(=O)CC(=O)C(Br)C(Br)c1ccc(Cl)cc1 (stereo not given) | 26.4 µM (inactive) | 33.5 µM | 24.6 µM (inactive) | 29.7 µM (inactive) | 17.5 µM (inactive) | 52.2 µM (inactive) | – | > 100 µM (inactive) | > 100 µM (inactive) | > 100 µM (inactive) | – | – | 30.3 µM (inactive) | 8.36 µM (inactive) | 34.1 µM (inactive) | 23.3 µM (inactive) | > 100 µM (inactive) | 22.3 µM (inactive) | > 100 µM (inactive) | –
N=C(N)NS(=O)(=O)c1ccc(NC(=O)c2cccc3c(Nc4ccc(S(=O)(=O)N=C(N)N)cc4)c4ccccc4nc23)cc1 | > 100 µM (inactive) | > 100 µM | > 100 µM (inactive) | 82.8 µM (inactive) | 50.9 µM (inactive) | 52 µM (inactive) | – | > 100 µM (inactive) | > 100 µM (inactive) | 88.1 µM (inactive) | 38 µM (inactive) | 28.8 µM (inactive) | > 100 µM (inactive) | 43.9 µM (inactive) | 62.5 µM (inactive) | 31.3 µM (inactive) | 6.05 µM (inactive) | > 100 µM (inactive) | 72.6 µM (inactive) | –
COc1ccc(/C=C(\NC(=O)c2ccccc2)c2nc3ccccc3[nH]2)cc1OC | > 100 µM (inactive) | > 100 µM | > 100 µM (inactive) | > 100 µM (inactive) | > 100 µM (inactive) | > 100 µM (inactive) | – | > 100 µM (inactive) | > 100 µM (inactive) | > 100 µM (inactive) | > 100 µM (inactive) | > 100 µM (inactive) | > 100 µM (inactive) | 85.9 µM (inactive) | > 100 µM (inactive) | > 100 µM (inactive) | > 100 µM (inactive) | 80.5 µM (inactive) | > 100 µM (inactive) | –
Fc1ccc(Oc2nc3ccccc3nc2-c2ccccc2)cc1 | > 100 µM (inactive) | > 100 µM | 76.9 µM (inactive) | > 100 µM (inactive) | 80 µM (inactive) | > 100 µM (inactive) | – | 88.9 µM (inactive) | > 100 µM (inactive) | > 100 µM (inactive) | > 100 µM (inactive) | 50.5 µM (inactive) | > 100 µM (inactive) | > 100 µM (inactive) | > 100 µM (inactive) | > 100 µM (inactive) | – | 81.7 µM (inactive) | > 100 µM (inactive) | > 100 µM (inactive)
O=C1OC2C(O)COC2(O)C1(O)Cc1c[nH]c2ccccc12 (stereo not given) | > 100 µM (inactive) | > 100 µM | > 100 µM (inactive) | – | > 100 µM (inactive) | > 100 µM (inactive) | – | > 100 µM (inactive) | > 100 µM (inactive) | > 100 µM (inactive) | > 100 µM (inactive) | > 100 µM (inactive) | > 100 µM (inactive) | > 100 µM (inactive) | > 100 µM (inactive) | > 100 µM (inactive) | > 100 µM (inactive) | > 100 µM (inactive) | > 100 µM (inactive) | –
COc1ccc(NC(=S)N/N=C\c2ccc(NC(C)=O)cc2)cc1 | > 100 µM (inactive) | – | > 100 µM (inactive) | > 100 µM (inactive) | > 100 µM (inactive) | > 100 µM (inactive) | – | > 100 µM (inactive) | > 100 µM (inactive) | > 100 µM (inactive) | > 100 µM (inactive) | > 100 µM (inactive) | > 100 µM (inactive) | > 100 µM (inactive) | – | > 100 µM (inactive) | > 100 µM (inactive) | > 100 µM (inactive) | > 100 µM (inactive) | –
Cn1ncc2c(Nc3ccc(Cl)cc3)c3ccccc3nc21 | 18 µM (inactive) | 15.7 µM | 17.6 µM (inactive) | 15.3 µM (inactive) | 14.1 µM (inactive) | 21.4 µM (inactive) | – | 16.4 µM (inactive) | 23.2 µM (inactive) | 17.7 µM (inactive) | 12.2 µM (inactive) | 15.6 µM (inactive) | 16 µM (inactive) | 17.9 µM (inactive) | 20.3 µM (inactive) | 19.7 µM (inactive) | 10.8 µM (inactive) | 20.1 µM (inactive) | 20.5 µM (inactive) | –
Cc1cccc(C(C)C)c1NC(=O)C(=O)C(C(=O)c1ccccc1F)C1OC(=O)c2ccccc21 (stereo not given) | 10.8 µM (inactive) | 20.5 µM | 23.4 µM (inactive) | 14.4 µM (inactive) | 15.7 µM (inactive) | 39.6 µM (inactive) | – | 15.8 µM (inactive) | 40 µM (inactive) | – | 13.6 µM (inactive) | 7.16 µM (inactive) | 16.6 µM (inactive) | 6.19 µM (inactive) | 9.64 µM (inactive) | 21.1 µM (inactive) | 9.75 µM (inactive) | 4.78 µM (inactive) | 18.9 µM (inactive) | –
Cc1ccc(-c2nnc(SCC(=O)O)[nH]2)cc1 | > 100 µM (inactive) | > 100 µM | > 100 µM (inactive) | > 100 µM (inactive) | > 100 µM (inactive) | > 100 µM (inactive) | – | > 100 µM (inactive) | > 100 µM (inactive) | > 100 µM (inactive) | > 100 µM (inactive) | > 100 µM (inactive) | > 100 µM (inactive) | > 100 µM (inactive) | > 100 µM (inactive) | > 100 µM (inactive) | 78.5 µM (inactive) | > 100 µM (inactive) | > 100 µM (inactive) | –
C#Cc1cccc(N2C(=O)CCC2=O)c1 | 31.4 µM (inactive) | 22.1 µM | – | 18.1 µM (inactive) | 18 µM (inactive) | 16.2 µM (inactive) | – | > 10 µM (inactive) | 16.7 µM (inactive) | 15.6 µM (inactive) | 9.08 µM (inactive) | 1.67 µM (inactive) | 18.5 µM (inactive) | 1.56 µM (inactive) | 17.7 µM (inactive) | 6.73 µM (inactive) | 13.6 µM (inactive) | 2.49 µM (inactive) | 21 µM (inactive) | 19.4 µM (inactive)
Clc1cccc(Cl)c1C1SCc2nc3ccccc3n21 (stereo not given) | > 100 µM (inactive) | 24.9 µM | 9.48 µM (inactive) | – | > 100 µM (inactive) | > 100 µM (inactive) | – | > 100 µM (inactive) | > 100 µM (inactive) | > 100 µM (inactive) | 9.23 µM (inactive) | > 100 µM (inactive) | > 100 µM (inactive) | 54.5 µM (inactive) | > 100 µM (inactive) | > 100 µM (inactive) | 88.3 µM (inactive) | 9.2 µM (inactive) | > 100 µM (inactive) | –
Cn1cnc([N+](=O)[O-])c1Sc1nc2ccccc2[nH]1 | > 10 µM (inactive) | 11.1 µM | 18.5 µM (inactive) | 13.1 µM (inactive) | 41.1 µM (inactive) | 19.3 µM (inactive) | – | > 100 µM (inactive) | 52.8 µM (inactive) | > 100 µM (inactive) | 14.8 µM (inactive) | 20 µM (inactive) | 14.7 µM (inactive) | 17.9 µM (inactive) | 14.3 µM (inactive) | 10.4 µM (inactive) | 18.4 µM (inactive) | 15.5 µM (inactive) | 21.7 µM (inactive) | –
